US20260206828A1, “CONSTITUENT MEMBER PERFUMED BY FLAVOR RAW MATERIAL AND SMOKING ARTICLE” (Japan Tobacco Inc., priority 2022, published 2026)

Tests used:
[1] = Retention index (RI) measurement by GC/MS; format: physicochemical; conditions: HP-5 MS column (95% dimethylpolysiloxane/5% phenyl-methylpolysiloxane), 1000 ppm in ethanol, n-alkane mixture C6-C35, linear method
Protocol: Menthol (L-Menthol, manufactured by Takasago International Corporation) and cooling sensation agents (the abovementioned COOLACT® 370, COOLACT® 5, COOLACT® 10, COOLACT® 20, Symcool® WS-5, and Symcool® WS-23) were respectively diluted by adding ethanol to obtain diluted solutions of menthol and each cooling sensation agent diluted to 1000 ppm in ethanol.
Gas chromatography with a mass spectrometer (GC/MS) was then performed on the abovementioned diluted solutions thus obtained.
• Apparatus: 7890B/5977B GC/MSD, manufactured by Agilent Technologies GC conditions • Column: HP-5 MS (manufactured by Agilent Technologies) • Inner diameter 0.25 mm×length 30 m, film thickness 0.25 μm • Injection volume: 1 μL • Injection mode: Split (10:1) • Injection port temperature: 270° C. • Septum purge flow: 5 ml/minute • Carrier gas: Helium (He) • Column flow rate: 1 mL/minute (constant flow mode) • Oven temperature: From 40° C. (3 minutes) to 280° C. (20 minutes) at a rate of 4° C./minute • Transfer line temperature: 280° C. MS conditions • Solvent wait time: 4 minutes • Ionization method: Electron impact ionization (EI), 70 eV • Ion source temperature: 230° C. • Quadrupole temperature: 150° C. • Measurement mode: Scan • MS scan range: m/z 26-450 • Threshold: 50 • Sampling rate: 2
The chromatogram retention index (RI) obtained by the abovementioned GC/MS analysis was calculated by the following method.
The RI of menthol or respective cooling agent was calculated by a linear method on the basis of an n-alkane mixture ranging from n-hexane (C6, RI: 600) to n-pentatriacontane (C35, RI: 3500) Note that the n-alkane mixture used in calculating the RI is not limited thereto.

[2] = Storage resistance by GC/MS: migration from tobacco filler to filter in a closed system; format: physicochemical; conditions: tobacco sticks, 2,500, 5,000 and 10,000 ppm
Protocol: A solution was prepared by dissolving a methyl menthol derivative (the abovementioned COOLACT® 370) through addition of methanol thereto. The solution thus obtained was added using the microsyringe described above to the tobacco filler of portion of an unheated smoking article (a tobacco stick comprising a tobacco filler portion and a filter portion), using the abovementioned microsyringe, such that the methyl menthol derivative content was 2,500 ppm, 5,000 ppm, or 10,000 ppm relative to the weight of tobacco therein, and the samples immediately after addition were considered to be “pre-storage tobacco stick samples.” Each tobacco stick injected with the methyl menthol derivative was placed in a Lami-Zip bag (AL-5, manufactured by Seisannipponsha), and left in an incubator (an SCI-13 compact incubator, manufactured by Shibata) for 5 days to provide a “post-storage tobacco stick sample.”
The pre-storage and post-storage tobacco stick samples obtained in the abovementioned manner underwent the following processing. • The tobacco filler portion and filter portion were removed from each sample and placed in a separate screw tube, and 10 mL of methanol were added. […]

[3] = Storage resistance by GC/MS: residual rate in tobacco filler in an open system; format: physicochemical; conditions: 5,000 ppm in tobacco filler, open system on a tray, 5 days in an incubator, internal standard quinoline
Protocol: Solutions were prepared by dissolving menthol and other cooling agents (the abovementioned COOLACT® 370 and Symcool® WS-23) respectively through addition of ethanol thereto. Each solution thus obtained was added to the tobacco filler portion of a combustion smoking article, using a microsyringe (MS-50, Ito Microsyringe, manufactured by Ito Seisakusho), such that that the content of menthol or other cooling sensation agent was 5,000 ppm relative to the weight of the tobacco, and the samples immediately after addition were considered to be “pre-storage cigarette samples.” Each solution thus obtained was also added to the tobacco filler portion of a heat-not-burn smoking article (a tobacco stick comprising a tobacco filler portion and a filter portion), using the abovementioned microsyringe, such that that the menthol or other cooling sensation agent content was 5,000 ppm relative to the weight of the tobacco therein, and the samples immediately after addition were considered to be “pre-storage tobacco stick samples.” The cigarettes and tobacco sticks injected with menthol or other cooling sensation agent were then placed on a tray (DT-1 disposable tray, manufactured by As One), stored for 5 days in an incubator (SCI-13 compact incubator, manufactured by Shibata), and were respectively considered to be “post-storage cigarette samples” and “post-storage tobacco stick samples.”
In addition, 1.0 g of quinoline was precisely weighed out as an internal standard, and diluted to 1 L with methanol to serve as an extraction solvent.
The pre-storage cigarette samples, pre-storage tobacco stick samples, post-storage cigarette samples, and post-storage tobacco stick samples obtained as described above then underwent the following treatment. • The tobacco filler portion was removed from each sample and placed in a screw tube, and 10 mL of the extraction solvent, prepared as described above, was added. The screw tubes were then shaken at 200 rpm for 20 minutes, and, after having been left to stand overnight, shaken again at 200 rpm for 20 minutes to obtain tobacco filler portion extract samples. The extract samples obtained from the pre-storage cigarette samples, pre-storage tobacco stick samples, post-storage cigarette samples, and post-storage tobacco stick samples were respectively considered to be “pre-storage cigarette extract samples,” “pre-storage tobacco stick extract samples,” “post-storage cigarette extract samples,” and “post-storage tobacco stick extract samples.”
The extract samples thus obtained were each collected using a syringe (25 mL, SS-02SZ, manufactured by Terumo Corporation) and filtered through a filter (0.45 μm, Prem Syringe Filter, RC, manufactured by Agilent Technologies), and the liquids obtained after filtration were respectively considered to be extract samples for pre-storage cigarette analysis, extract samples for pre-storage tobacco stick analysis, extract samples for post-storage cigarette analysis, and extract samples for post-storage tobacco stick analysis.
The target ions and qualifier ions shown below were selected for the respective cooling sensation agents. A target ion and qualifier ion were also selected for quinoline, used as the internal standard. • Menthol (target ion: m/z=95.1, qualifier ion: m/z=71.0, 81.1) • […] (target ion: m/z=114.0, qualifier ion: m/z=57.0, 102.0) • COOLACT® 370 (target ion: m/z=211.2, qualifier ion: m/z=97.0, 168.1) • Quinoline (target ion: m/z=129.1, qualifier ion: m/z=76.0, 102.0)
• Column: HP-5 MS (manufactured by Agilent Technologies), inner diameter 0.25 mm×length 30 m, film thickness 0.25 μm • Injection volume: 1 μL • Injection mode: Split (10:1) • Injection port temperature: 270° C. • Septum purge flow rate: 5 mL/minute • Carrier gas: Helium (He) • Column flow rate: 1 ml/minute (constant flow mode) • Oven: 40° C. (for 3 minutes) to 280° C. (for 10 minutes) at 10° C./minute […]

[4] = Preliminary study of cooling sensation intensity; format: in vivo; conditions: similar contents
Source text: Whereas the content of the methyl menthol derivative or cooling agent other than a methyl menthol derivative as a cooling ingredient was 2000 ppm in the abovementioned Examples 1-3 and in Comparative Examples 2 and 4, the content of the cooling ingredient menthol in the abovementioned Comparative Examples 1 and 3 was set to 5,000 ppm, thus adjusting the cooling sensation intensity as much as possible to facilitate comparison, in order to assess cooling sensation intensity in the present sensory evaluation.

[5] = cigarettes (combustion smoking articles)
[6] = tobacco sticks (heat-not-burn smoking articles)

Row | SMILES | Retention index (RI) [1] | Migration from tobacco filler portion to filter portion, post-storage ([2]; closed system (Lami-Zip bag), 5 days in an incubator, FIGS. 10-12) | Migration from tobacco filler portion to filter portion, pre-storage ([2]; immediately after addition, GC/MS total ion chromatograms, FIGS. 7-9) | Residual rate [3, 5] [%] | Residual rate [3, 6] [%] | Cooling sensation intensity compared with methyl menthol derivatives and other cooling agents [4]
1 | CC(C)[C@@H]1CC[C@@H](C)C[C@H]1OCCO [COOLACT® 5, 2-L-menthoxyethanol] | 1414 |  |  |  |  | 
2 | CC1CCC(C(C)C)C(OCC(O)CO)C1 [COOLACT® 10, 3-L-menthoxypropane-1,2-diol] | 1674 |  |  |  |  | 
3 | CC(O)CC(=O)O[C@@H]1C[C@H](C)CC[C@H]1C(C)C (stereo partly drawn) [COOLACT® 20, L-menthyl-3-hydroxybutyrate] | 1611 |  |  |  |  | 
4 | CC(C)C1CCC(C)(C)CC1C(=O)NCC(O)c1ccccc1 (stereo not shown) [COOLACT® 370, N-(2-hydroxy-2-phenylethyl)-2-isopropyl-5,5-dimethylcyclohexane-1-carboxamide] | 2477 | had not migrated from the tobacco filler portion to the filter portion | did not migrate from the tobacco filler portion to the filter portion | 98.5 | 100 | 
5 | CC1CCC(C(C)C)C(O)C1 (stereo not shown) [Menthol] | 1173 |  |  | 15.9 | 10.4 | weaker cooling sensation intensity
6 | CCOC(=O)CNC(=O)C1CC(C)CCC1C(C)C (stereo not shown) [Symcool® WS-5, ethyl-2-(p-menthane-3-carboxamido)acetate] | 1942 |  |  |  |  | 
7 | CNC(=O)C(C)(C(C)C)C(C)C [Symcool® WS-23, 2-isopropyl-N,2,3-trimethylbutyramide] | 1287 |  |  | 33.5 | 50.2 | 
